Patent US20020151581A1, “Glucose and lipid lowering compounds” (priority 1998, published 2002)

Assays:
lipoprotein lipase = target: T1, lipoprotein lipase (Homo sapiens, UniProt P06858); assay: Inhibition of lipoprotein lipase, glycerol stabilized triolein substrate; type: biochemical; conditions: test compound 100 μM
T1 sequence (P06858 28-475): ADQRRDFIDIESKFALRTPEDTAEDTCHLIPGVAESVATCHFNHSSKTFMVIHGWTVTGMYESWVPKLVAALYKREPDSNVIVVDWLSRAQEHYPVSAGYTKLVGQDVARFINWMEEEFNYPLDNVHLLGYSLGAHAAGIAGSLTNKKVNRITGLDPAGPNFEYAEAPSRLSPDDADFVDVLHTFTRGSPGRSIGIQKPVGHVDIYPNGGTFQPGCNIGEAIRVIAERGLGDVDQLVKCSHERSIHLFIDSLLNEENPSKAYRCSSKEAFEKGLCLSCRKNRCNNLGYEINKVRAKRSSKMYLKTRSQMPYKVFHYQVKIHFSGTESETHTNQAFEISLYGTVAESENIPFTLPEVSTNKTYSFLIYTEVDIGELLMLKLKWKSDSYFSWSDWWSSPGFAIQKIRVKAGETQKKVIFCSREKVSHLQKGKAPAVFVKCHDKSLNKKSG

hepatic lipase = target: T2, hepatic lipase (Homo sapiens, UniProt P11150); assay: Inhibition of hepatic lipase, glycerol stabilized triolein substrate; type: biochemical; design: Pur. Hepatic Lipase + test compound (enzyme activity): unit not given beside the values; conditions: test compound 100 μM
T2 sequence (P11150 23-499): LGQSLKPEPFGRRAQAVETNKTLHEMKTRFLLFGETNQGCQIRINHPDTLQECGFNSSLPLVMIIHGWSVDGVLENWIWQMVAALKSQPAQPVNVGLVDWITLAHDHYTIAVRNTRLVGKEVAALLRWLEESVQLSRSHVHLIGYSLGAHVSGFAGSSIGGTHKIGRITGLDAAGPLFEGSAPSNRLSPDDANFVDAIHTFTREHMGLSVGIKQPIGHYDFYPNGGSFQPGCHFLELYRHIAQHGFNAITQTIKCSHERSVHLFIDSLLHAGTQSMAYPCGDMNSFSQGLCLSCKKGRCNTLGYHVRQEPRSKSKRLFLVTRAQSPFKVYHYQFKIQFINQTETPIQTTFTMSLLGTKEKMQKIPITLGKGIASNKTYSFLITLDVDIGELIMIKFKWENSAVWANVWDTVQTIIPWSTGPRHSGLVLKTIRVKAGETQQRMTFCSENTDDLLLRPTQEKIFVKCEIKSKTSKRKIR

- inhibition of lipoprotein lipase (in words) (lipoprotein lipase): failed to significantly inhibit
- Lipoprotein Lipase + test compound (enzyme activity) (lipoprotein lipase; triolein substrate 30 μM): 0.7
- Lipoprotein Lipase + test compound (enzyme activity) (lipoprotein lipase; triolein substrate 67 μM): 1.8
- Lipoprotein Lipase + test compound (enzyme activity) (lipoprotein lipase; triolein substrate 134 μM): 4.9
- Lipoprotein Lipase + test compound (enzyme activity) (lipoprotein lipase; triolein substrate 264 μM): 10.3
- Lipoprotein Lipase + test compound (enzyme activity) (lipoprotein lipase; triolein substrate 1000 μM): 67.4
- inhibition of hepatic lipase (in words) (hepatic lipase): failed to significantly inhibit
- Pur. Hepatic Lipase + test compound (enzyme activity) (hepatic lipase; triolein substrate 30 μM): 0.08
- Pur. Hepatic Lipase + test compound (enzyme activity) (hepatic lipase; triolein substrate 67 μM): 0.37
- Pur. Hepatic Lipase + test compound (enzyme activity) (hepatic lipase; triolein substrate 100 μM): 0.69
- Pur. Hepatic Lipase + test compound (enzyme activity) (hepatic lipase; triolein substrate 201 μM): 6.36
- Pur. Hepatic Lipase + test compound (enzyme activity) (hepatic lipase; triolein substrate 400 μM): 30.80
- Pur. Hepatic Lipase + test compound (enzyme activity) (hepatic lipase; triolein substrate 1000 μM): 151.60
Compound: CC1C[C@H](OC(=O)c2ccccc2)C[C@]2(C)C[C@H]3OC(=O)[C@@H](C)[C@H]3CC12 (stereo partly drawn) [2α-benzoyloxy-4,5,7,8,11αH-eudesman-8,12-olide]
